What was measured:
human ENPP-1 enzyme [1] = molecular target: T1, human ENPP-1 enzyme (Homo sapiens, UniProt P22413); test: ENPP1 Enzyme Assay with cGAMP Substrate (AMP-Glo); assay type: biochemical; conditions: for inhibition at 1 µM: 1 uM compound; for inhibition at 1 µM / inhibition at 10 µM: 20 μM 2′3′-cGAMP substrate; for inhibition at 10 µM: 10 uM compound
T1 construct: purchased R&D Systems
T1 sequence (P22413 1-925): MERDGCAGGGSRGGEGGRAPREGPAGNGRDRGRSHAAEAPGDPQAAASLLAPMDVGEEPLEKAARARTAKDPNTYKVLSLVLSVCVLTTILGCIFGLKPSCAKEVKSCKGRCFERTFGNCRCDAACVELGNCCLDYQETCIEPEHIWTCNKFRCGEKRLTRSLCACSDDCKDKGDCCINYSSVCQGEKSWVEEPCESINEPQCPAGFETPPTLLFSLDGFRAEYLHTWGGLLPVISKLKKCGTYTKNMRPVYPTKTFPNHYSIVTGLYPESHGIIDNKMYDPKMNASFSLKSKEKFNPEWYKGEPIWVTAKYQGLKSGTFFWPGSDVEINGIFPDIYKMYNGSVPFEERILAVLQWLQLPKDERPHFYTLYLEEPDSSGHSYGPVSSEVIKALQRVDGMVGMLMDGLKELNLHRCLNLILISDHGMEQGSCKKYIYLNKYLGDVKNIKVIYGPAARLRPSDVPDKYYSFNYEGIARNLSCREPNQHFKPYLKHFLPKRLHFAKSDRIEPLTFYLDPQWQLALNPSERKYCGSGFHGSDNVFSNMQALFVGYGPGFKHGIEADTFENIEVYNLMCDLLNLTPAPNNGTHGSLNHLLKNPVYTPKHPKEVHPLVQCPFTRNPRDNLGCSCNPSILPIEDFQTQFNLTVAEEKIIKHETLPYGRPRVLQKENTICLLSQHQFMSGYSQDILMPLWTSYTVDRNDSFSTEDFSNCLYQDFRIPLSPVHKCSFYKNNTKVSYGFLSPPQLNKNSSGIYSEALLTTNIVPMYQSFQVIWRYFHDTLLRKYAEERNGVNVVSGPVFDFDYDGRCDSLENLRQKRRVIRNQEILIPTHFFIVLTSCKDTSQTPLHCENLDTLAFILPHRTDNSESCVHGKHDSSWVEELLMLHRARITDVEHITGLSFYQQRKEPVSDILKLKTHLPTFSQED
Text: ENPP1 Enzyme Assay with cGAMP Substrate:
Ectonucleotide pyrophosphatase/phosphodiesterase 1 (ENPP-1) is a transmembrane glycoprotein that hydrolyzes nucleotides and nucleotide derivatives with the formation of nucleoside-5′-monophosphates. ENPP-1 hydrolyzes 2′3′-cGAMP (cGAMP), breaking it down into 5′-AMP and 5′-GMP. The 5′-AMP formed from the reaction is detected using the AMP-Glo® Kit (Promega). The assay kit contains two reagents. The first reagent terminates the enzymatic reaction, removes ATP (using adenylyl cyclase), and converts 5′-AMP produced into ADP (using polyphosphate: AMP phosphotransferase). The second reagent converts ADP to ATP (using adenylate kinase) and generates light from ATP using the luciferin/luciferase reaction. The amount of light measured is proportional to the amount of 5′-AMP produced by ENPP1.
Different concentrations of exemplary ENPP1 inhibitors (synthetic molecules #1-7; see Table 1) were pre-incubated with 5 ng/well of human ENPP-1 enzyme (R&D Systems) for 15 minutes at 37° C. The reaction was initiated by adding 20 μM 2′3′-cGAMP and incubating for 30 minutes at 37° C. The final assay reaction mixture contained a buffer of 50 mM Tris pH 8.0, 250 mM NaCl, 0.5 mM CaCl2, 1 μM ZnCl2 and 1% DMSO. At the end of the incubation, the reaction was stopped by adding 12 μl of AMP-Glo reagent-1 and mixing the reaction uniformly for 5 minutes, followed by incubation at room temperature for one hour. Then 25 μl of AMP Glo reagent-2 was added to the reaction, mixed uniformly with a pipette, and incubated at room temperature for one hour to convert the ADP formed from reagent-1 to ATP and light. The generated light was measured in a Perkin Elmer Victor® instrument. Maximal activity control samples (containing enzyme, substrate, and buffer in the absence of ENPP1 inhibitors: MAX) and background control samples (containing enzyme, substrate, and buffer plus a fully inhibitory concentration (3 μM) of the reference ENPP1 Inhibitor, MV-0000002: MIN) were simultaneously evaluated in order to calculate the percent inhibition at each compound concentration as follows:
(§1) % inhibition=(([MAX−MIN]−[COMPOUND−MIN])/[MAX−MIN])*100
The IC50 values for percent inhibition versus compound concentration were determined by fitting the inhibition curves using a four-parameter variable slope model in GraphPad Prism® software. Ki values are derived from the IC50 values using the Cheng-Prusoff equation: […]

human ENPP-1 enzyme [2] = molecular target: T1, human ENPP-1 enzyme; test: ENPP1 Enzyme Assay with TMP-pNP Substrate (absorbance at 405 nm); assay type: biochemical; conditions: for inhibition at 10 µM: read-out: TMP-pNP: % inhibition at 10 uM, 10 uM compound, 200 μM TMP-pNP substrate
Protocol: ENPP1 Enzyme Assay with TMP-pNP Substrate:
ENPP-1 hydrolyzes thymidine 5′monophosphate p-nitrophenyl ester (TMP-pNP) to nucleotide-5′-monophosphate and p-nitrophenol, which is a chromogenic product. The amount of p-nitrophenol product formed is measured using its absorbance at 405 nm, which is directly proportional to enzyme activity. Different concentrations of inhibitors (synthetic molecules #1-7; see Table 1) were pre-incubated with 15 ng/well of human ENPP-1 enzyme (R&D Systems) for 15 minutes at 37° C. The reaction was initiated by adding 200 μM TMP-pNP and incubating for 10 minutes at 37° C. The final assay reaction mixture contained a buffer of 50 mM Tris pH 8.0, 250 mM NaCl, 0.5 mM CaCl2, 1 μM ZnCl2 and 1% DMSO. The amount of product formed was measured directly in a Tecan® spectrophotometer. Maximal activity control samples (containing enzyme, substrate, and buffer in the absence of ENPP1 inhibitors: MAX) and background control samples (containing enzyme, substrate, and buffer plus a fully inhibitory concentration (3 μM) of the reference ENPP1 Inhibitor, MV-0000002: MIN) are simultaneously evaluated in order to calculate the percent inhibition at each compound concentration as follows:
as §1
The IC50 values for percent inhibition versus compound concentration were determined by fitting the inhibition curves (percent inhibition versus inhibitor concentration) using a four-parameter variable slope model in GraphPad Prism® software. Ki values are derived from the IC50 values using the Cheng-Prusoff equation:
Ki=IC50/(1+[TMP-pNP]/Km),

SMILES: COc1cc2ncc(C(N)=O)c(N3CCC(CCNS(N)(=O)=O)CC3)c2cc1OC [Ex 2, 6,7-dimethoxy-4-(4-(2-(sulfamoylamino)ethyl)piperidin-1-yl)quinoline-3-carboxamide]
- inhibition at 1 µM (human ENPP-1 enzyme [1]): ≥ 75%
- inhibition at 10 µM (human ENPP-1 enzyme [2]): ≥ 75%

SMILES: Cn1ncc2c(N3CCC(CCNS(N)(=O)=O)CC3)ncnc21 [Ex 3, N-(2-(1-(1-methyl-1H-pyrazolo[3,4-d]pyrimidin-4-yl)piperidin-4-yl)ethyl)sulfonic amide]
- Ki (human ENPP-1 enzyme [1]): > 1 µM
- inhibition at 10 µM (human ENPP-1 enzyme [1]): ≥ 75%
- Ki (human ENPP-1 enzyme [2]): > 1 µM

SMILES: COc1cc2ncnc(N3CCC4(CC3)CN(S(N)(=O)=O)C4)c2cc1OC [Ex 5, 7-(6,7-dimethoxyquinazolin-4-yl)-2,7-diazaspiro[3.5]nonane-2-sulfonamide]
- Ki (human ENPP-1 enzyme [1]): ≤ 0.1 µM
- inhibition at 10 µM (human ENPP-1 enzyme [1]): ≥ 75%
- Ki (human ENPP-1 enzyme [2]): 0.1 to 1 µM
- inhibition at 10 µM (human ENPP-1 enzyme [2]): ≥ 75%

SMILES: COc1cc2ncnc(N3CCc4c(cccc4S(N)(=O)=O)C3)c2cc1OC [Ex 6, 2-(6,7-dimethoxyquinazolin-4-yl)-1,2,3,4-tetrahydroisoquinoline-5-sulfonamide]
- Ki (human ENPP-1 enzyme [1]): 0.1 to 1 µM
- inhibition at 1 µM (human ENPP-1 enzyme [1]): ≥ 75%
- Ki (human ENPP-1 enzyme [2]): > 1 µM

SMILES: COc1cc2ncnc(NCCc3cccc(NS(N)(=O)=O)c3)c2cc1OC [Ex 7, N-(3-(2-((6,7-dimethoxyquinazolin-4-yl)amino)ethyl)phenyl)sulfonic amide]
- Ki (human ENPP-1 enzyme [1]): 0.1 to 1 µM
- inhibition at 10 µM (human ENPP-1 enzyme [1]): ≥ 75%
- Ki (human ENPP-1 enzyme [2]): > 1 µM
